{"source": "patent US7648957B2", "about": "“Nutritional and therapeutic composition of an insulin sensitizer and a peptide fraction” (DSM IP Assets B.V., priority 2002, dated 2010)", "origin": "cited, not measured here", "key": {"[1]": {"settings": "very high glucose levels"}, "[2]": {"system": "cell's response to insulin", "settings": "on administration of the chemical, estimated"}}, "data": [{"substance": "methylhydroxy chalcone polymer [MHCP]", "values": [{"measurement": "glucose levels in diabetic mice", "setting": "[1]", "value": "could normalise very high glucose levels"}, {"measurement": "rise of sensitivity to insulin", "setting": "[2]", "value": "around 20 fold"}]}]}
